Results from patent US20260327191A1, “GSK3a INHIBITORS AND METHODS OF USE THEREOF” (Blueprint Medicines Corporation, priority 2023, published 2026).

Tests used:
human GSK3α = biological target: T1, human GSK3α (Homo sapiens, UniProt P49840); assay: In vitro enzymatic activity assay, GSK3α; type: biochemical; details: 1.0 mM ATP, 1.0 μM peptide substrate, 120 min, 25° C, read-out: Enzyme GSK3α (IC50)
T1 construct: Full length human GSK3α or GSK3B expressed as N-terminal GST fusion proteins; GST (N); purchased Carna Biosciences (Japan); host or cells: baculovirus host
T1 sequence (P49840 whole entry, the tested form may be a part): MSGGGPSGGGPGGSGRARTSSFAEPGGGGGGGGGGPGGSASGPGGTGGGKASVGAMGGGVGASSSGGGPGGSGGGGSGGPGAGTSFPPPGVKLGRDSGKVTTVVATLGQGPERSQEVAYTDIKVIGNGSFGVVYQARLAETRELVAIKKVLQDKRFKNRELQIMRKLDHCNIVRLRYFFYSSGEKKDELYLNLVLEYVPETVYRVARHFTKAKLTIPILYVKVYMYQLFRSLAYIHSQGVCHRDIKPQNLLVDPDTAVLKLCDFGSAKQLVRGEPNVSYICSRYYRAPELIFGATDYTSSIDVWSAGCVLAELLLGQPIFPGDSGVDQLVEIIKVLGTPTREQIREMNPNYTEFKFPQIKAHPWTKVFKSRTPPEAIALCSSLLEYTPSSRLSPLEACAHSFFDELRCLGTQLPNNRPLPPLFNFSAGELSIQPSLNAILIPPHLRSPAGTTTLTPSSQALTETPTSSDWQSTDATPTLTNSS

GSK3A = biological target: T2, GSK3A (Homo sapiens, UniProt P49840); assay: NanoBRET cellular target engagement assay, Nanoluc-GSK3A in HEK293 cells; type: cell-based; details: NanoBRET GSK3α IC50, HEK293 cells, tracer K-8, 2 hours, 37° C
T2 construct: expressed in transfected cells
T2 sequence (P49840 whole entry): as the sequence (P49840 whole entry, the tested form may be a part) above

GSK3B [1] = biological target: T3, GSK3B (Homo sapiens, UniProt P49841); assay: In vitro enzymatic activity assay, GSK3β; type: biochemical; set-up: Full length human GSK3α or GSK3B expressed as N-terminal GST fusion proteins; GST (N); purchased Carna Biosciences (Japan); host or cells: baculovirus host; details: 1.0 mM ATP, 1.0 μM peptide substrate, 120 min, 25° C, read-out: Enzyme GSK3β (IC50)
T3 sequence (P49841 whole entry, the tested form may be a part): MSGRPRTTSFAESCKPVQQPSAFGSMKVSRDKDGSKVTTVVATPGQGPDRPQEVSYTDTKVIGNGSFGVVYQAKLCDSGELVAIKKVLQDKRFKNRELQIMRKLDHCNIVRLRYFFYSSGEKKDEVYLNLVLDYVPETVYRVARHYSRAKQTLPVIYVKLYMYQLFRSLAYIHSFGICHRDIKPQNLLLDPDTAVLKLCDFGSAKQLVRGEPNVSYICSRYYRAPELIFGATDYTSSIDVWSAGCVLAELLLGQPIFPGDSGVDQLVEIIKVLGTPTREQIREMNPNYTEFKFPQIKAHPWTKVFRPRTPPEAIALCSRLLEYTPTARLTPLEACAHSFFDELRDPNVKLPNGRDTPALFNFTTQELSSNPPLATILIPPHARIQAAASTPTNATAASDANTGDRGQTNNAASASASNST

GSK3B [2] = biological target: T3, GSK3B; assay: NanoBRET cellular target engagement assay, Nanoluc-GSK3B in HEK293 cells; type: cell-based; set-up: expressed in transfected cells; details: NanoBRET GSK3β IC50, HEK293 cells, tracer K-8, 2 hours, 37° C

Row | SMILES | IC50 (human GSK3α) | IC50 (GSK3A) | IC50 (GSK3B [1]) | IC50 (GSK3B [2])
1 | COCc1cc(C)c(-n2cnc(N)c(C(=O)Nc3cncc(C4CNC(=O)CN4)c3)c2=O)c(C)c1 (single isomer, unassigned) [Example 159, (R)-4-amino-1-(4-(methoxymethyl)-2,6-dimethylphenyl)-6-oxo-N-(5-(5-oxopiperazin-2-yl)pyridin-3-yl)-1,6-dihydropyrimidine-5-carboxamide or (S)-4-amino-1-(4-(methoxymethyl)-2,6-dimethylphenyl)-6-oxo-N-(5-(5-oxopiperazin-2-yl)pyridin-3-yl)-1,6-dihydropyrimidine-5-carboxamide] | 90.6 nM | 76.9 nM | 2080 nM | 5790 nM
2 | COCc1cc(C)c(-n2cnc(N)c(C(=O)Nc3cncc(C4CNC(=O)CN4)c3)c2=O)c(C)c1 (single isomer, unassigned) [Example 160, (R)-4-amino-1-(4-(methoxymethyl)-2,6-dimethylphenyl)-6-oxo-N-(5-(5-oxopiperazin-2-yl)pyridin-3-yl)-1,6-dihydropyrimidine-5-carboxamide or (S)-4-amino-1-(4-(methoxymethyl)-2,6-dimethylphenyl)-6-oxo-N-(5-(5-oxopiperazin-2-yl)pyridin-3-yl)-1,6-dihydropyrimidine-5-carboxamide] | 161 nM | 197 nM | 2320 nM | 11300 nM
3 | COc1ccccc1-n1cnc(N)c(C(=O)Nc2cccc(C3CCCN3)c2N2CCOCC2)c1=O (single isomer, unassigned) [Example 166, (S)-4-amino-1-(2-methoxyphenyl)-N-(2-morpholino-3-(pyrrolidin-2-yl)phenyl)-6-oxo-1,6-dihydropyrimidine-5-carboxamide or (R)-4-amino-1-(2-methoxyphenyl)-N-(2-morpholino-3-(pyrrolidin-2-yl)phenyl)-6-oxo-1,6-dihydropyrimidine-5-carboxamide] | 285 nM | 177 nM | 9380 nM | 16100 nM
4 | Nc1ncn(-c2c(Cl)cccc2Cl)c(=O)c1C(=O)Nc1cccc(C2CCCN2)c1F (single isomer, unassigned) [Example 167, (S)-4-amino-1-(2,6-dichlorophenyl)-N-(2-fluoro-3-(pyrrolidin-2-yl)phenyl)-6-oxo-1,6-dihydropyrimidine-5-carboxamide or (R)-4-amino-1-(2,6-dichlorophenyl)-N-(2-fluoro-3-(pyrrolidin-2-yl)phenyl)-6-oxo-1,6-dihydropyrimidine-5-carboxamide] | 45.4 nM | 27.2 nM | 1810 nM | 1860 nM
5 | Nc1ncn(-c2c(Cl)cccc2Cl)c(=O)c1C(=O)Nc1cccc(C2CCCN2)c1F (single isomer, unassigned) [Example 168, (S)-4-amino-1-(2,6-dichlorophenyl)-N-(2-fluoro-3-(pyrrolidin-2-yl)phenyl)-6-oxo-1,6-dihydropyrimidine-5-carboxamide or (R)-4-amino-1-(2,6-dichlorophenyl)-N-(2-fluoro-3-(pyrrolidin-2-yl)phenyl)-6-oxo-1,6-dihydropyrimidine-5-carboxamide] | 49.3 nM | 27.1 nM | 1530 nM | 1470 nM
6 | COc1c(NC(=O)c2c(N)ncn(-c3c(Cl)cccc3Cl)c2=O)cccc1C1CCCN1 (single isomer, unassigned) [Example 169, (R)-4-amino-1-(2,6-dichlorophenyl)-N-(2-methoxy-3-(pyrrolidin-2-yl)phenyl)-6-oxo-1,6-dihydropyrimidine-5-carboxamide or (S)-4-amino-1-(2,6-dichlorophenyl)-N-(2-methoxy-3-(pyrrolidin-2-yl)phenyl)-6-oxo-1,6-dihydropyrimidine-5-carboxamide] | 4.2 nM | 2 nM | 105 nM | 103 nM
7 | COc1cc(Cl)c(-n2cnc(N)c(C(=O)Nc3cnnc(C4CCCCN4)c3)c2=O)c(Cl)c1 (single isomer, unassigned) [Example 172, (R)-4-amino-1-(2,6-dichloro-4-methoxyphenyl)-6-oxo-N-(6-(piperidin-2-yl)pyridazin-4-yl)-1,6-dihydropyrimidine-5-carboxamide or (S)-4-amino-1-(2,6-dichloro-4-methoxyphenyl)-6-oxo-N-(6-(piperidin-2-yl)pyridazin-4-yl)-1,6-dihydropyrimidine-5-carboxamide] | 6.3 nM | 3.5 nM | 260 nM | 98.8 nM
8 | CO[C@H](C)c1cc(C)c(-n2cnc(N)c(C(=O)Nc3cncc([C@@H](C)N)c3)c2=O)c(C)c1 (single isomer, unassigned) [Example 174] | 28 nM | 8.7 nM | 705 nM | 560 nM
9 | CC1CCC(c2cccc(NC(=O)c3c(N)ncn(-c4c(Cl)cccc4Cl)c3=O)c2)N1 (single isomer, unassigned) [Example 180, 4-amino-1-(2,6-dichlorophenyl)-N-(3-((2R,5R)-5-methylpyrrolidin-2-yl)phenyl)-6-oxo-1,6-dihydropyrimidine-5-carboxamide or 4-amino-1-(2,6-dichlorophenyl)-N-(3-((2S,5S)-5-methylpyrrolidin-2-yl)phenyl)-6-oxo-1,6-dihydropyrimidine-5-carboxamide] | 6.4 nM | 4.7 nM | 298 nM | 322 nM

Continued, values first:

Row | IC50 (human GSK3α) | IC50 (GSK3A) | IC50 (GSK3B [1]) | IC50 (GSK3B [2]) | SMILES
10 | 1.1 nM | 1 nM | 44.2 nM | 49.5 nM | C#CCC(N)c1cncc(NC(=O)c2c(N)ncn(-c3c(Cl)cc(OCC)cc3Cl)c2=O)c1 (single isomer, unassigned) [Example 150, (R)-4-amino-N-(5-(1-aminobut-3-yn-1-yl)pyridin-3-yl)-1-(2,6-dichloro-4-ethoxyphenyl)-6-oxo-1,6-dihydropyrimidine-5-carboxamide or (S)-4-amino-N-(5-(1-aminobut-3-yn-1-yl)pyridin-3-yl)-1-(2,6-dichloro-4-ethoxyphenyl)-6-oxo-1,6-dihydropyrimidine-5-carboxamide]
11 | 14.9 nM | 7.1 nM | 501 nM | 406 nM | C#CCC(N)c1cncc(NC(=O)c2c(N)ncn(-c3c(Cl)cc(OCC)cc3Cl)c2=O)c1 (single isomer, unassigned) [Example 151, (R)-4-amino-N-(5-(1-aminobut-3-yn-1-yl)pyridin-3-yl)-1-(2,6-dichloro-4-ethoxyphenyl)-6-oxo-1,6-dihydropyrimidine-5-carboxamide or (S)-4-amino-N-(5-(1-aminobut-3-yn-1-yl)pyridin-3-yl)-1-(2,6-dichloro-4-ethoxyphenyl)-6-oxo-1,6-dihydropyrimidine-5-carboxamide]
12 | 7.8 nM | 6.4 nM | 346 nM | 491 nM | CCC(N)c1cncc(NC(=O)c2c(N)ncn(-c3c(Cl)cncc3Cl)c2=O)c1 (single isomer, unassigned) [Example 153, (R)-4-amino-N-(5-(1-aminopropyl)pyridin-3-yl)-1-(3,5-dichloropyridin-4-yl)-6-oxo-1,6-dihydropyrimidine-5-carboxamide or (S)-4-amino-N-(5-(1-aminopropyl)pyridin-3-yl)-1-(3,5-dichloropyridin-4-yl)-6-oxo-1,6-dihydropyrimidine-5-carboxamide]
13 | 9.9 nM | 3.7 nM | 374 nM | 279 nM | Cc1cc(CCF)cc(C)c1-n1cnc(N)c(C(=O)Nc2cncc(C(C)N)c2)c1=O (single isomer, unassigned) [Example 155, (R)-4-amino-N-(5-(1-aminoethyl)pyridin-3-yl)-1-(4-(2-fluoroethyl)-2,6-dimethylphenyl)-6-oxo-1,6-dihydropyrimidine-5-carboxamide or (S)-4-amino-N-(5-(1-aminoethyl)pyridin-3-yl)-1-(4-(2-fluoroethyl)-2,6-dimethylphenyl)-6-oxo-1,6-dihydropyrimidine-5-carboxamide]
14 | 32.6 nM | 8.1 nM | 803 nM | 581 nM | CO[C@H](C)c1cc(C)c(-n2cnc(N)c(C(=O)Nc3cncc([C@@H](C)N)c3)c2=O)c(C)c1 (single isomer, unassigned) [Example 175]
15 | 4 nM | 2.8 nM | 200 nM | 283 nM | CCOC[C@@H](N)c1cncc(NC(=O)c2c(N)ncn(-c3c(C)cc(COC)cc3C)c2=O)c1 (single isomer, unassigned) [Example 177, (S)-4-amino-N-(5-(1-amino-2-ethoxyethyl)pyridin-3-yl)-1-(4-(methoxymethyl)-2,6-dimethylphenyl)-6-oxo-1,6-dihydropyrimidine-5-carboxamide or (R)-4-amino-N-(5-(1-amino-2-ethoxyethyl)pyridin-3-yl)-1-(4-(methoxymethyl)-2,6-dimethylphenyl)-6-oxo-1,6-dihydropyrimidine-5-carboxamide]
